We go through 2 molecules from ChEMBL document CHEMBL1132002, “Interaction of tyrosyl aryl dipeptides with S. aureus tyrosyl tRNA synthetase: inhibition and crystal structure of a complex” (Bioorg Med Chem Lett, 1999).

Square brackets hold non-standard residues; d marks the D form. Peptide text beside a SMILES is read from it. ξ: configuration not given here. ξHpg = NC(C(=O)O)c1ccc(O)cc1

The test system of this experiment is Tyrosine--tRNA ligase (Staphylococcus aureus). Kind of experiment: Compound was tested for inhibition of Staphylococcus aureus tyrosyl tRNA Synthetase; NI=No inhibition.

In the case of `N[C@@H](Cc1ccc(O)cc1)C(=O)N[C@@H](C(=O)O)c1ccccc1`, the IC50 result is “No inhibition”.
For `COC(=O)C(NC(=O)[C@@H](N)Cc1ccc(O)cc1)c1ccc(O)cc1` (some centres not stated) (H-Tyr-[ξHpg]-OMe), the IC50 entry is “No inhibition”.
